Experimental data: ChEMBL document CHEMBL3045888, “Synthesis and anti-hypertensive activity of novel sulphadimidine derivatives” (Med Chem Res, 2012)
The source made the active and inactive calls. No cut-off for these calls is given here.

test system: Rattus norvegicus; assay: Antihypertensive activity in hypertensive Rattus norvegicus Sprague-Dawley (rat) model assessed as reduction in mean systolic blood pressure level at 0.3 mg/kg, ip after 1 hr by non-invasive tail cuff method; format: functional, organism-based; set-up: dose 0.3 mg/kg; conditions: Artery

Row | SMILES | Activity
1 | COc1cc2nc(N3CCN(C(=O)c4ccco4)CC3)nc(N)c2cc1OC | Active
2 | CCNc1ccc(/N=N\c2ccc(S(=O)(=O)Nc3nc(C)cc(C)n3)cc2)cc1 | Active
3 | CCN(Cc1ccccc1)c1ccc(/N=N\c2ccc(S(=O)(=O)Nc3nc(C)cc(C)n3)cc2)cc1 | Active
4 | CCN(CC)c1ccc(/N=N\c2ccc(S(=O)(=O)Nc3nc(C)cc(C)n3)cc2)cc1 | Active
5 | Cc1cc(C)nc(NS(=O)(=O)c2ccc(/N=N\c3ccc(N(C)C)cc3)cc2)n1 | Active
